Consider 18 molecules from patent US11976083B2, “Inhibitors of peptidylarginine deiminases” (Gilead Sciences, Inc., priority 2020, dated 2024).

T1 sequence (Q9UM07 2-663): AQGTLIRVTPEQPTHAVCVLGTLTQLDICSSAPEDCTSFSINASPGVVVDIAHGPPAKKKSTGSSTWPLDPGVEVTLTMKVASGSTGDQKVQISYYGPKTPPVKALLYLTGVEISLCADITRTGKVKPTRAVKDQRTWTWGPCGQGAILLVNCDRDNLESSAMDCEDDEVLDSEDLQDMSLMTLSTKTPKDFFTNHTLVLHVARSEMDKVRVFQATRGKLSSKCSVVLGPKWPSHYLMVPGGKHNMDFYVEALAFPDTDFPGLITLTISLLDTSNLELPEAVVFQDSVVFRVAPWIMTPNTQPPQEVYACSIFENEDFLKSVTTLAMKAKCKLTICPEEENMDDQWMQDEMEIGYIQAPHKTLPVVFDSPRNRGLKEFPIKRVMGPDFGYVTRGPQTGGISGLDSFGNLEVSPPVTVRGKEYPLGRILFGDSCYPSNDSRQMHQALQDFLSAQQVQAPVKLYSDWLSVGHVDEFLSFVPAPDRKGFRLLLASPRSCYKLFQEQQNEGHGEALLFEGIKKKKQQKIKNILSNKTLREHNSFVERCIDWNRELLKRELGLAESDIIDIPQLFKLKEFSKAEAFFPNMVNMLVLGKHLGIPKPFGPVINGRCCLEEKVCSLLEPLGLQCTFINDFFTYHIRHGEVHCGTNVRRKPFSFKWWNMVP

This assay concerns the target T1, human PAD4 (Homo sapiens, UniProt Q9UM07).
T1 construct: human PAD4 (NM_012387), A2-P663, was PCR amplified; His-SUMO (N, cleaved yes); made in house; host or cells: E. coli BL21(DE3)
Nature of the assay: In vitro PAD4 BAEE biochemical assay. Conditions: BAEE substrate 3 mM, 5 nM PAD4, 2 mM calcium chloride; geometric mean of multiple experiments. The essentials:
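Fluorescence read-out (ex 405/em 535 nm) of isoindole formed from ammonia, o-phthalaldehyde and DTT after EDTA stop. Reaction: 5 nM PAD4, 2 mM CaCl2, 3 mM BAEE, 2 h, 25 °C, after 30 min enzyme–compound preincubation. Normalised to BB-Cl-Amidine (50 µM) and DMSO controls.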
Broadly, the IC50 is the concentration that inhibits the measured activity by half. For `C[C@H]1NC(=O)[C@@H]2C[C@H]2CCCCCn2c(-c3nc4cc(C(=O)N[C@H]5CNCC[C@@H]5F)c(F)cc4n3C3CC3)cc3ccc1nc32` [Example 182, 1-cyclopropyl-6-fluoro-~{N}-[(3~{S},4~{S})-4-fluoro-3-piperidyl]-2-[(2~{R},5~{R},7~{R})-2-methyl-4-oxo-3,13,19-triazatetracyclo[11.5.2.0^{5,7}.0^{16,20}]icosa-1(19),14,16(20),17-tetraen-14-yl]benzimidazole-5-carboxamide], the concentration for half-maximal inhibition (IC50) worked out at 31 nM.

Consider `COc1cc(C(=O)N[C@H]2CNCC[C@@H]2F)cc2nc(-c3cc4ccc5nc4n3CCCCCc3nnn(C)c3C(=O)N[C@@H]5C)n(C)c12` [Example 183, 2-[(2~{R})-2,6-dimethyl-4-oxo-3,6,7,8,15,21-hexazatetracyclo[13.5.2.0^{5,9}.0^{18,22}]docosa-1(21),5(9),7,16,18(22),19-hexaen-16-yl]-~{N}-[(3~{S},4~{S})-4-fluoro-3-piperidyl]-7-methoxy-1-methyl-benzimidazole-5-carboxamide], for which the half-inhibitory concentration (IC50) came out at 121 nM. For `COc1cc(C(=O)N[C@H]2CNCC[C@@H]2F)cc2nc(-c3cc4ccc5nc4n3CCCCC[C@@H]3C[C@H]3C(=O)N[C@@H]5C)n(C)c12` [Example 184, ~{N}-[(3~{S},4~{S})-4-fluoro-3-piperidyl]-7-methoxy-1-methyl-2-[(2~{R},5~{R},7~{R})-2-methyl-4-oxo-3,13,19-triazatetracyclo[11.5.2.0^{5,7}.0^{16,20}]icosa-1(19),14,16(20),17-tetraen-14-yl]benzimidazole-5-carboxamide] the value was 42 nM. `COc1cc(C(=O)N[C@H]2CNCC[C@@H]2F)cc2nc(-c3cc4ccc5nc4n3CCCCCc3nn(C)nc3C(=O)N[C@@H]5C)n(C)c12` [Example 185, 2-[(2~{R})-2,7-dimethyl-4-oxo-3,6,7,8,15,21-hexazatetracyclo[13.5.2.0^{5,9}.0^{18,22}]docosa-1(21),5,8,16,18(22),19-hexaen-16-yl]-~{N}-[(3~{S),4~{S})-4-fluoro-3-piperidyl]-7-methoxy-1-methyl-benzimidazole-5-carboxamide]: the IC50 was 66 nM.

Regarding `COc1cc(C(=O)N[C@H]2CNCC[C@@H]2F)cc2nc(-c3cc4ccc5nc4n3CC(F)(F)CCCc3ccccc3C(=O)N[C@@H]5C)n(C)c12` [Example 186, 2-[(2~{R})-14,14-difluoro-2-methyl-4-oxo-3,16,22-triazatetracyclo[14.5.2.0^{5,10}.0^{19,23}]tricosa-1(22),5(10),6,8,17,19(23),20-heptaen-17-yl]-~{N}-[(3~{S},4~{S})-4-fluoro-3-piperidyl]-7-methoxy-1-methyl-benzimidazole-5-carboxamide], the IC50 came to 139 nM. For `COc1cc(C(=O)N[C@H]2CNCC[C@@H]2F)cc2nc(-c3cc4ccc5nc4n3CCCCC[C@H]3C[C@]3(C)C(=O)N[C@@H]5C)n(C)c12` [Example 187, 2-[(2~{R},5~{S},7~{S})-2,5-dimethyl-4-oxo-3,13,19-triazatetracyclo[11.5.2.0^{5,7}.0^{16,20}]icosa-1(19),14,16(20),17-tetraen-14-yl]-~ {N}-[(3~{S},4~{S})-4-fluoro-3-piperidyl]-7-methoxy-1-methyl-benzimidazole-5-carboxamide] the value was 109 nM; for `C[C@H]1NC(=O)[C@@H]2C[C@H]2CCCCCn2c(-c3nc4cc(C(=O)N[C@H]5CNCC[C@@H]5F)cnc4n3C)cc3ccc1nc32` [Example 188, ˜{N}-[(3˜{S},4˜{S})-4-fluoro-3-piperidyl]-3-methyl-2-[(2˜{R},5˜{R},7˜{R})-2-methyl-4-oxo-3,13,19-triazatetracyclo[11.5.2.0^{5,7}.0^{16,20}]icosa-1(19),14,16(20),17-tetraen-14-yl]imidazo[4,5-b]pyridine-6-carboxamide], 49 nM; for `C[C@H]1NC(=O)[C@@H]2C[C@H]2CCCC(F)(F)Cn2c(-c3nc4cc(C(=O)N[C@H]5CNCC[C@@H]5F)c(F)c(F)c4n3C3CC3)cc3ccc1nc32` [Example 189, 1-cyclopropyl-2-[(2~{R},5~{R},7~{R})-11,11-difluoro-2-methyl-4-oxo-3,13,19-triazatetracyclo[11.5.2.0^{5,7}.0^{16,20}]icosa-1(19),14,16(20),17-tetraen-14-yl]-6,7-difluoro-~{N}-[(3~{S},4~{S})-4-fluoro-3-piperidyl]benzimidazole-5-carboxamide], 33 nM. As for `COc1cc(C(=O)N2CC[C@H]3OCCN[C@H]3C2)cc2nc(-c3cc4ccc5cc4n3CCCCCCC(C)(C)C(=O)N[C@@H]5C)n(C)c12` [Example 190, (11~{R})-17-[5-[(4~{a}~{S},8~{a}~{R})-2,3,4,4~{a},5,7,8,8~{a}-octahydropyrido[4,3-b][1,4]oxazine-6-carbonyl]-7-methoxy-1-methyl-benzimidazol-2-yl]-8,8,11-trimethyl-1,10-diazatricyclo[10.5.2.0^{15,18}]nonadeca-12(19),13,15(18),16-tetraen-9-one], the figure is 94 nM; as for `COc1cc(C(=O)N[C@H]2CNCCC2(F)F)cc2nc(-c3cc4ccc5cc4n3CCCCCCC(C)(C)C(=O)N[C@@H]5C)n(C)c12` [Example 191, ~{N}-[(3~{S})-4,4-difluoro-3-piperidyl]-7-methoxy-1-methyl-2-[(11~{R})-8,8,11-trimethyl-9-oxo-1,10-diazatricyclo[10.5.2.0^{15,18}]nonadeca-12(19),13,15(18),16-tetraen-17-yl]benzimidazole-5-carboxamide], 140 nM; as for `COc1cc(C(=O)N2CC[C@@H](C(F)(F)F)[C@@H](N)C2)cc2nc(-c3cc4ccc5nc4n3CCCCCCC(C)(C)C(=O)N[C@@H]5C)n(C)c12` [Example 192, (11~{R})-17-[5-[(3~{R},4~{R})-3-amino-4-(trifluoromethyl)piperidine-1-carbonyl]-7-methoxy-1-methyl-benzimidazol-2-yl]-8,8,11-trimethyl-1,10,19-triazatricyclo[10.5.2.0^{15,18}]nonadeca-12(19),13,15(18),16-tetraen-9-one], 6690 nM. For `COc1cc(C(=O)N2C[C@H](N)C[C@@H](F)C2)cc2nc(-c3cc4ccc5nc4n3CCCCCCC(C)(C)C(=O)N[C@@H]5C)n(C)c12` [Example 193, (11~{R})-17-[5-[(3~{R},5~{R})-3-amino-5-fluoro-piperidine-1-carbonyl]-7-methoxy-1-methyl-benzimidazol-2-yl]-8,8,11-trimethyl-1,10,19-triazatricyclo[10.5.2.0^{15,18}]nonadeca-12(19),13,15(18),16-tetraen-9-one] the value was 66 nM; for `C[C@H]1NC(=O)C(C)(C)CCCCCCn2c(-c3nc4cc(C(=O)N5C[C@H](N)C[C@@H](F)C5)c(F)cc4n3C3CC3)cc3ccc1nc32` [Example 194, (11~{R})-17-[5-[(3~{R},5~{R})-3-amino-5-fluoro-piperidine-1-carbonyl]-1-cyclopropyl-6-fluoro-benzimidazol-2-yl]-8,8,11-trimethyl-1,10,19-triazatricyclo[10.5.2.0^{15,18}]nonadeca-12(19),13,15(18),16-tetraen-9-one], 150 nM.

As for `COc1cc(C(=O)N2CC[C@@H](O)[C@@H](N)C2)cc2nc(-c3cc4ccc5nc4n3CCCCCCC(C)(C)C(=O)N[C@@H]5C)n(C)c12` [Example 195, (11~{R})-17-[5-[(3~{S},4~{R})-3-amino-4-hydroxy-piperidine-1-carbonyl]-7-methoxy-1-methyl-benzimidazol-2-yl]-8,8,11-trimethyl-1,10,19-triazatricyclo[10.5.2.0^{15,18}]nonadeca-12(19),13,15(18),16-tetraen-9-one], the IC50 came out at 56 nM. As for `COc1cc(C(=O)N2CC[C@@H](C)[C@@H](N)C2)cc2nc(-c3cc4ccc5nc4n3CCCCCCC(C)(C)C(=O)N[C@@H]5C)n(C)c12` [Example 196, (11~{R})-17-[5-[(3~{R},4~{R})-3-amino-4-methyl-piperidine-1-carbonyl]-7-methoxy-1-methyl-benzimidazol-2-yl]-8,8,11-trimethyl-1,10,19-triazatricyclo[10.5.2.0^{15,18}]nonadeca-12(19),13,15(18),16-tetraen-9-one], the figure is 116 nM; as for `COc1cc(C(=O)N[C@H]2CNC[C@@H]2F)cc2nc(-c3cc4ccc5nc4n3CCCCCCC(C)(C)C(=O)N[C@@H]5C)n(C)c12` [Example 197, ~{N}-[(3~{S},4~{S})-4-fluoropyrrolidin-3-yl]-7-methoxy-1-methyl-2-[(11~{R})-8,8,11-trimethyl-9-oxo-1,10,19-triazatricyclo[10.5.2.0^{15,18}]nonadeca-12(19),13,15(18),16-tetraen-17-yl]benzimidazole-5-carboxamide], 6490 nM; as for `COc1cc(C(=O)N[C@@H]2CNC[C@@H]2F)cc2nc(-c3cc4ccc5nc4n3CCCCCCC(C)(C)C(=O)N[C@@H]5C)n(C)c12` [Example 198, ~{N}-[(3~{R},4~{S})-4-fluoropyrrolidin-3-yl]-7-methoxy-1-methyl-2-[(11~{R})-8,8,11-trimethyl-9-oxo-1,10,19-triazatricyclo[10.5.2.0^{15,18}]nonadeca-12(19),13,15(18),16-tetraen-17-yl]benzimidazole-5-carboxamide], 5960 nM.

Take `COc1cc(C(=O)N[C@H]2CNC[C@H]2F)cc2nc(-c3cc4ccc5nc4n3CCCCCCC(C)(C)C(=O)N[C@@H]5C)n(C)c12` [Example 199, ~{N}-[(3~{S),4~{R})-4-fluoropyrrolidin-3-yl]-7-methoxy-1-methyl-2-[(11~{R})-8,8,11-trimethyl-9-oxo-1,10,19-triazatricyclo[10.5.2.0^{15,18}]nonadeca-12(19),13,15(18),16-tetraen-17-yl]benzimidazole-5-carboxamide]: the IC50 was found to be 18400 nM.
